Experiment [1] deals with Male Sprague-Dawley rats. The experiment is described as follows: Formalin model of acute tonic pain. Format: in vivo, rat. The protocol:
Male Sprague-Dawley rats were given a subcutaneous injection of 50 μl of 2.5% formalin into the plantar surface of one hindpaw using a 27 gauge syringe needle, and nociceptive responses were measured for the next 60 min. Compound or vehicle was administered (ip. or s.c.) 15-45 minutes prior to the formalin injection. A nociceptive score was determined for each 5 min block by measuring the amount of time spent in each of four behavioral categories: 0, the injected hindpaw is indistinguishable from that of the contralateral paw; 1, the injected paw has little or no weight placed on it; 2, the injected paw is elevated and is not in contact with any surface; 3, the injected paw is licked, bitten, or shaken. A weighted nociceptive score, ranging from 0 to 3 was calculated by multiplying the time spent in each category by the category weight, summing these products, and dividing by the total time for each 5 min block of time (Coderre et al., Pain 1993; 54: 43). On the basis of the resulting response patterns, 2 phases of nociceptive behaviour were identified and scored: first phase (P1; 0-5 min) and second phase (P2; 11-40 min).
Statistical analysis was performed using Prism™ 4.01 software package (GraphPad, San Diego, Calif., USA). The difference in response levels between treatment groups and control vehicle group was analyzed using an ANOVA followed by Bonferroni's method for post-hoc pair-wise comparisons. A p value <0.05 was considered to be significant.
Animals were treated with vehicle (VEH) or Compound 5 (50 mg/kg i.p.; CMP) 10-20 minutes before the intraplantar injection of 2.5% formalin, as described above.

Experiment [2] deals with Male Sprague-Dawley rats. Description: Seltzer or Partial Nerve Ligation (PNL) model of neuropathic pain, mechanical allodynia. As to conditions: 25 mg/kg i.p., 90 min post-treatment. It counts as in vivo, rat. From the text:
The Partial Nerve Ligation (PNL) model (Seltzer et al., Pain 1990; 43:205) was used to induce chronic neuropathic pain. Male Sprague-Dawley rats were anesthetized with isoflurane, and injury to the sciatic nerve was achieved by tying a tight ligature around ⅓ to ½ of the sciatic nerve just proximal to the nerve's trifurcation in the mid-thigh. Animals develop thermal and mechanical hyperalgesia and allodynia, as well as a long-lasting spontaneous pain or dysesthesia after the nerve injury.
Mechanical allodynia testing: Pre- and post-injury baselines as well as post-treatment values (vehicle or compound-treated animals) for mechanical allodynia were evaluated using Von Frey filaments (Stoelting, Wood Dale, Ill., USA) with varying stiffness. […] The mean and standard error of the mean (SEM) were determined for each paw in each treatment group (ipsilateral/injured paw and contralateral/non-injured paw). […] Effects of compounds were evaluated two weeks after the injury. Compound or vehicle was administered (i.p. or s.c.) and effects on mechanical allodynia were measured at different time points after dosing (e.g., 30, 60 and 90 min.).
Data analysis: Statistical analyses were conducted using Prism™ 4.01 (GraphPad, San Diego, Calif., USA). Mechanical hypersensitivity of the injured paw was determined by comparing contralateral to ipsilateral paw values within the vehicle group at each time point. […]

“Also recorded” adds a separate entry of the source.

For the molecule `O=C(O)c1ccc(Cl)c(N2C(=O)c3cccc4cc([N+](=O)[O-])cc(c34)C2=O)c1` [Compound 5, 4-Chloro-3-(5-nitro-1,3-dioxo-1H,3H-benzo[de]isoquinolin-2-yl)-benzoic acid], the “formalin-induced spontaneous responses, Phase I” value in experiment [1] (50 mg/kg i.p. 10-20 min before 2.5% formalin, vehicle 148±9, n=8) was found to be 59±15. The “formalin-induced spontaneous responses, Phase II” value in experiment [1] (50 mg/kg i.p. 10-20 min before 2.5% formalin, vehicle 180±6, n=8) was 61±19. Also, the “antinociceptive effect in the Formalin Test” value in experiment [1] (50 mg/kg i.p., result in words, p<0.001 vs vehicle, 50 mg/kg) is on record as “significant antinociceptive effects”. For the same molecule, in experiment [2] (result in words, 25 mg/kg), the “antinociceptive effect / reversal of mechanical allodynia in partial nerve ligation model” value is listed as “significant reversal of the mechanical allodynia; also recorded: antinociceptive effects”. In addition, the “mechanical allodynia, Von Frey response threshold of injured paw” value in experiment [2] (vehicle 2.17±0.19 g, n=7) stood at 5.14 ± 0.36 g.

The values are drawn from patent US20070123514A1, “Methods of modulating neurotrophin-mediated activity” (PainCeptor Pharma Corporation, priority 2005, published 2007).
